Molecular target: T1, RANTES/MIP-1α chemokine receptor (CCR1) in THP-1 cell membranes (Homo sapiens, UniProt P32246)
T1 construct: Membranes were prepared from THP-1 cells (ATCC #TIB202); host or cells: THP-1 cells (membrane preparation)
T1 sequence (P32246 1-355): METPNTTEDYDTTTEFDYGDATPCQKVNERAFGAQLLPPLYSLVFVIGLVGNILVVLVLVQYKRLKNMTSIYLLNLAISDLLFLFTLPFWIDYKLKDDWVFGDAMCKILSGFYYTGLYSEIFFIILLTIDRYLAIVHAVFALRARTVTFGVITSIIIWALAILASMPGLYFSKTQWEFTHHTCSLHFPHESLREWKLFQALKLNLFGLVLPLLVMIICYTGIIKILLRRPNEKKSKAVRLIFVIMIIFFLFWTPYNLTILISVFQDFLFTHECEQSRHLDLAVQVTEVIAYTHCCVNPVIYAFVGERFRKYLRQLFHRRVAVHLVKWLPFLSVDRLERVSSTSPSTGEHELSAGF
Experiment: Receptor binding assay: 125I-RANTES or 125I-MIP-1α binding to THP-1 cell membranes
Details: inhibitor concentration required for 50% inhibition of specific binding; 125I-RANTES or 125I-MIP-1α as ligand, THP-1 cell membranes; read-out: IC50
Experimental: Membranes were prepared from THP-1 cells (ATCC #TIB202). Cells were harvested by centrifugation, washed twice with PBS (phosphate-buffered saline), and the cell pellets were frozen at −70 to −85° C. The frozen pellet was thawed in ice-cold lysis buffer consisting of 5 mM HEPES (N-2-hydroxyethylpiperazine-N′-2-ethane-sulfonic acid) pH 7.5, 2 mM EDTA (ethylenediaminetetraacetic acid), 5 μg/ml each aprotinin, leupeptin, and chymostatin (protease inhibitors), and 100 μg/ml PMSF (phenyl methane sulfonyl fluoride—also a protease inhibitor), at a concentration of 1 to 5×10^7 cells/ml. This procedure results in cell lysis. The suspension was mixed well to resuspend all of the frozen cell pellet. Nuclei and cell debris were removed by centrifugation of 400×g for 10 minutes at 4° C. The supernatant was transferred to a fresh tube and the membrane fragments were collected by centrifugation at 25,000×g for 30 minutes at 4° C. The supernatant was aspirated and the pellet was resuspended in freezing buffer consisting of 10 mM HEPES pH 7.5, 300 mM sucrose, 1 μg/ml each aprotinin, leupeptin, and chymostatin, and 10 μg/ml PMSF (approximately 0.1 ml per each 10^8 cells). All clumps were resolved using a minihomogenizer, and the total protein concentration was determined using a protein assay kit (Bio-Rad, Hercules, Calif., cat #500-0002). The membrane solution was then aliquoted and frozen at −70 to −85° C. until needed.
Binding Assays utilized the membranes described above. […] The binding reactions were performed in 60 to 100 μl of a binding buffer consisting of 10 mM HEPES pH 7.2, 1 mM CaCl2, 5 mM MgCl2, and 0.5% BSA (bovine serum albumin), for 60 min at room temperature. The binding reactions were terminated by harvesting the membranes by rapid filtration through glass fiber filters (GF/B or GF/C, Packard) which were presoaked in 0.3% polyethyleneimine. The filters were rinsed with approximately 600 μl of binding buffer containing 0.5 M NaCl, dried, and the amount of bound radioactivity was determined by scintillation counting in a Topcount beta-plate counter.
Specific binding is defined as the total binding minus the non-specific binding; non-specific binding is the amount of cpm still detected in the presence of excess unlabeled Rantes or MIP-1α.

“1-Cyclohexyl-4-[3-(5,11-dihydro-7-methoxy[1]benzoxepino[2,3-b]pyridin-5-ylidene)propyl]piperazine [Example 73]” was tested, and the IC50 was less than 10000 nM.

For CC(C)(O)c1ccc2c(c1)C(=CCCN1CCC(N(CC(=O)O)Cc3ccc(Cl)cc3)CC1)c1cccnc1CO2 [Example 501, [(4-Chloro-benzyl)-(1-{3-[7-(1-hydroxy-1-methyl-ethyl)-11H-10-oxa-1-aza-dibenzo[a,d]cyclohepten-5-ylidene]-propyl}-piperidin-4-yl)-amino]-acetic acid], the IC50 was less than 10000 nM.

Work on CCN(Cc1ccc(Cl)cc1)[C@@H]1CCN(CCC=C2c3cc(C(=O)O)ccc3OCc3ncccc32)C1 [Example 527, (R)-5-(3-{3-[(4-Chloro-benzyl)-ethyl-amino]-pyrrolidin-1-yl}-propylidene)-5,11-dihydro-10-oxa-1-aza-dibenzo[a,d]cycloheptene-7-carboxylic acid] yielded an IC50 of less than 1000 nM.

For “4-(4-Chlorophenyl)-1-[3-(5,11-dihydro-7-cyclopentyl-oxycarbonyl-[1]benzoxepino[2,3-b]pyridin-5-ylidene) propyl]piperidine-4-ol [Example 429]”, the IC50 was less than 1000 nM.

“1-[3-(7-Bromo-5,11-dihydro[1]benzoxepino[2,3-b]pyridin-5-ylidene)propyl]-4-(4-chlorophenyl)piperidin-4-ol [Example 162]” gave an IC50 of less than 1000 nM.

C[C@H]1CN(CCC=C2c3cc(C(C)(C)O)ccc3OCc3ncccc32)CCN1c1ccc(Cl)cc1 [Example 556, 2-(5-{3-[4-(4-Chloro-phenyl)-3-(S)-methyl-piperazin-1-yl]-propylidene}-5,11-dihydro-10-oxa-1-aza-dibenzo[a,d]cyclohepten-7-yl)-propan-2-ol] gave an IC50 of less than 1000 nM.

CC(=O)OCCOc1ccc2c(c1)C(=CCCN1CCC(O)(c3ccc(Cl)cc3)C(C)(C)C1)c1cccnc1CO2 (centres unmarked) [Example 506, Acetic acid 2-(5-{3-[4-(4-chloro-phenyl)-4-hydroxy-3,3-dimethyl-piperidin-1-yl]-propylidene}-5,11-dihydro-10-oxa-1-aza-dibenzo[a,d]cyclohepten-7-yloxy)-ethyl ester] gave an IC50 of less than 1000 nM.

For “4-(4-Chlorophenyl)-1-[3-(5,11-dihydro-7-(2-hydroxy)ethyl[1]benzoxepino[2,3-b]pyridin-5-ylidene)propyl]piperidin-4-ol [Example 280]”, the IC50 was less than 1000 nM.

In the case of “8-[3-(5,11-Dihydro-7-methoxy[1]benzoxepino[2,3-b]pyridin-5-ylidene)propyl]-1-phenyl-1,3,8-triazaspiro[4,5]decan-4-one [Example 69]”, the IC50 is reported as less than 1000 nM.

“4-(4-Chlorophenyl)-1-[3-(5,11-dihydro-7-hydroxy[1]benzoxepino[2,3-b]pyridin-5-ylidene)propyl]piperidine [Example 151]” showed an IC50 of less than 1000 nM.

Work on CC(C)CN(Cc1ccc(Cl)cc1)C1CCN(CCC=C2c3cc(C(C)(C)O)ccc3OCc3ncccc32)C1 (centres unmarked) [Example 550, 2-[5-(3-{3-[(4-Chloro-benzyl)-isobutyl-amino]-pyrrolidin-1-yl}-propylidene)-5,11-dihydro-10-oxa-1-aza-dibenzo[a,d]cyclohepten-7-yl]-propan-2-ol] yielded an IC50 of less than 1000 nM.

O=C(O)c1ccc2c(c1)C(=CCCN1CCC(O)(c3ccc(Cl)cc3)CC1)c1ccccc1CO2 [Example 24, 1-[3-(2-Carboxyl-6,11-dihydrodibenz[b,e]oxepin-11-ylidene)propyl]-4-(4-chlorophenyl)piperidin-4-ol] gave an IC50 of less than 10000 nM.

In the case of “1-[3-(5,11-Dihydro-7-methoxy[1]benzoxepino[2,3-b]pyridin-5-ylidene)propyl]-4-(4-hydroxyphenyl)piperidin-4-ol [Example 142]”, the IC50 is reported as less than 10000 nM.

CCN(c1ccc(Cl)cc1)C1CCN(CCC=C2c3cc(C(C)(C)O)ccc3OCc3ncccc32)CC1 [Example 493, 2-[5-(3-{4-[(4-Chloro-phenyl)-ethyl-amino]-piperidin-1-yl}-propylidene)-5,11-dihydro-10-oxa-1-aza-dibenzo[a,d]cyclohepten-7-yl]-propan-2-ol] gave an IC50 of less than 10000 nM.

“1-[3-(7-Carbamoylmethyl-5,11-dihydro[1]benzoxepino[2,3-b]pyridin-5-ylidene)propyl]-4-(4-chlorophenyl)-piperidin-4-ol [Example 281]” was tested, and the IC50 was less than 1000 nM.

With OCc1ccc2c(c1)C(=CCCN1CCC(O)(c3ccc(Cl)cc3)CC1)c1ccccc1CO2 [Example 26, 4-(4-Chlorophenyl)-1-[3-(6,11-dihydro-2-hydroxymethyldibenz[b,e]oxepin-11-ylidene)propyl]piperidin-4-ol] the IC50 was less than 1000 nM.

CCOCC1(C)CN(CCC=C2c3cc(C(C)(C)O)ccc3OCc3ncccc32)CCC1(O)c1ccc(Cl)cc1 (centres unmarked) [Example 484, 4-(4-Chloro-phenyl)-3-ethoxymethyl-1-{3 [7-(-hydroxy-1-methyl-ethyl)-11H-10-oxa-1-aza-dibenzo[a,d]cyclohepten-5-ylidene]-propyl}-3-methyl-piperidin-4-ol] gave an IC50 of less than 1000 nM.

With COc1ccc2c(c1)C(=CCCN1CCOC(c3ccc(Cl)cc3)OCC1)c1cccnc1CO2 [Example 249, 5-(4-Chlorophenyl)-1-[3-(5,11-dihydro-7-methoxy[1]benzoxepino[2,3-b]pyridin-5-ylidene)propyl]-4,6-dioxazacane] the IC50 was less than 1000 nM.

Molecule “4-(3,4-Dichlorophenyl)-1-[3-(5,11-dihydro-7-methoxy[1]benzoxepino[2,3-b]pyridin-5-ylidene)propyl]piperidin-4-ol [Example 79]” has an IC50 of less than 1000 nM.

In the case of CCCCC(CC)C(=O)N(Cc1ccc(Cl)cc1)C1CCN(CCC=C2c3cc(C(C)(C)O)ccc3OCc3ncccc32)C1 (centres unmarked) [Example 566, 2-Ethyl-hexanoic acid (4-chloro-benzyl)-(1-{3-[7-(1-hydroxy-1-methyl-ethyl)-11H-10-oxa-1-aza-dibenzo[a,d]cyclohepten-5-ylidene]-propyl}-pyrrolidin-3-yl)-amide], the IC50 is reported as less than 20000 nM.

With “4-(p-Chloroanilino)-1-[3-(5,11-dihydro-7-methoxy[1]benzoxepino[2,3-b]pyridin-5-ylidene)propyl]piperidine [Example 86]” the IC50 was greater than 10000 nM.

OC1(c2ccc(Cl)cc2)CCN(CCC=C2c3cc(CN4CCOCC4)ccc3OCc3ncccc32)CC1 [Example 278, 4-(4-Chlorophenyl)-1-[3-(5,11-dihydro-7-(4-morpholino)methyl[1]benzoxepino[2,3-b]pyridin-5-ylidene)propyl]piperidin-4-ol] showed an IC50 of less than 1000 nM.

CN1C(=O)c2ccccc2C(=CCCN2CCC(O)(c3ccc(Cl)cc3)CC2)c2ccccc21 [Example 19, 4-(4-Chlorophenyl)-1-[3-(6,11-dihydro-5-methyl-6-oxo-5H-dibenz[b,e]azepin-11-ylidene)propyl]piperidin-4-ol] showed an IC50 of less than 1000 nM.

CC(C)(CO)Oc1ccc2c(c1)C(=CCCN1CCC(O)(c3ccc(Cl)cc3)CC1)c1cccnc1CO2 [Example 199, 4-(4-Chlorophenyl)-1-[3-(7-(2-(1-hydroxy-2-methyl)propyl)oxy-5,11-dihydro[1]benzoxepino[2,3-b]pyridin-5-ylidene)propyl]piperidin-4-ol] gave an IC50 of less than 1000 nM.

“1-[3-(5,11-Dihydro-7-methoxy[1]benzoxepino[2,3-b]pyridin-5-ylidene)propyl]-4-(4-trifluoromethylphenyl)piperidin-4-ol [Example 150]” gave an IC50 of less than 10000 nM.

“1-(3-Chlorophenylsulfonyl)-4-[3-(5,11-Dihydro-7-methoxy[1]benzoxepino[2,3-b]pyridin-5-ylidene)propyl]piperazine [Example 191]” showed an IC50 greater than 10000 nM.
